Consider 68 sequences from the supplement of paper PMC11208160.

This data set in a line: recombinant UMI read abundance after kanamycin selection (control-corrected) (log10(CPM+1)); higher = more efficient recombination; extreme values may be limits of the assay; sequences stand for … in AGTGCAGAGAAAATCGGCCAGTTTTCTCTGCCTGCAGTCCGCATGCCGTGGGACCCCTTGGGTTCTAACCTGTTGCCTAGATTTATGCAGCGGACTGCCTTTCTCCCAAAGTGATAAACCGG…AGGTTGGTTTCACT; site = the 11-nt donor. An outline of the steps: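 Under IPTG (0.07 mM) plus kanamycin, or without selection, Escherichia coli carrying a UMI-tagged donor and donor-binding-loop pair library and a target plasmid for the IS621 bridge recombinase were plated in two replicates. Recombinant UMIs were PCR-amplified across the donor–target junction and sequenced. Counts were converted to CPM, averaged over replicates, scaled by control-derived factors and reported as log10(CPM+1).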
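Further: IS621 bridge recombinase in Escherichia coli cells against a fixed T5 target plasmid.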

Regarding “TGACCTCCATGGACCGGTTTTCCCGGTAATCCGTATTTGAA (site TGACCTCCTTT)”, the “recombinant UMI read abundance (log10)” value is 0.019.
With “TGACTATCATGGACCGGTTTTCCCGGTAATCCGTATTTGTA (site TGACTATCTTA)”, the “recombinant UMI read abundance (log10)” value was 2.58.
Regarding “TGACTCACATGGACCGGTTTTCCCGGTAATCCGTATTTGAC (site TGACTCACTGT)”, the “recombinant UMI read abundance (log10)” value turned out to be 2.68.
Then “TGAGAGGCATGGACCGGTTTTCCCGGTAATCCGTATTTGTA (site TGAGAGGCTTA)”, with 2.3; and “TGAGATACATGGACCGGTTTTCCCGGTAATCCGTATTTGAG (site TGAGATACTCT)”, with 2.26.
Then “TGAGGACCATGGACCGGTTTTCCCGGTAATCCGTATTTGCA (site TGAGGACCTTG)”, with 0; and “TGAGTTTCATGGACCGGTTTTCCCGGTAATCCGTATTTGAG (site TGAGTTTCTCT)”, with 1.89; and “TGATAGACATGGACCGGTTTTCCCGGTAATCCGTATTTGGA (site TGATAGACTTC)”, with 0.865.
Then “TGATCAACATGGACCGGTTTTCCCGGTAATCCGTATTTGCT (site CGATCATCTAG)”, with 0.
With “TGATCAACATGGACCGGTTTTCCCGGTAATCCGTATTTGCT (site TGATCAACTAG)”, the “recombinant UMI read abundance (log10)” value worked out at 0.879.
Next, “TGATCATCATGGACCGGTTTTCCCGGTAATCCGTATTTGCT (site AGATCATCTAG)”: 1.56; “TGATCATCATGGACCGGTTTTCCCGGTAATCCGTATTTGCT (site CGATCATCTAG)”: 1.63.
For the sequence “TGATCATCATGGACCGGTTTTCCCGGTAATCCGTATTTGCT (site GGATCATCTAG)”, the “recombinant UMI read abundance (log10)” value came out at 1.02.
Next, “TGATCATCATGGACCGGTTTTCCCGGTAATCCGTATTTGCT (site TGATCATCTAG)”: 0.945; “TGATCCCCATGGACCGGTTTTCCCGGTAATCCGTATTTGTA (site TGATCCCCTTA)”: 0.674; “TGATCCCCATGGACCGGTTTTCCCGGTAATCCGTATTTGTA (site TGCTCCCCTTA)”: 0.195.
Turning to “TGATCCCCATGGACCGGTTTTCCCGGTAATCCGTATTTGTA (site TGGTCCCCTTA)”, the “recombinant UMI read abundance (log10)” value is 0.00213.
Then “TGATCCCCATGGACCGGTTTTCCCGGTAATCCGTATTTGTA (site TGTTCCCCTTA)”, with 0.28; and “TGATCCGCATGGACCGGTTTTCCCGGTAATCCGTATTTGCC (site TGATCCGCTGG)”, with 1.55.
Next, “TGCAAACCATGGACCGGTTTTCCCGGTAATCCGTATTTGGG (site TGCAAACCTCC)”: 0.00989.
Then “TGCAATCCATGGACCGGTTTTCCCGGTAATCCGTATTTGAA (site AGCAATCCTTT)”, with 0.00584.
In the case of “TGCAATCCATGGACCGGTTTTCCCGGTAATCCGTATTTGAA (site CGCAATCCTTT)”, the “recombinant UMI read abundance (log10)” value was 0.257.
Then “TGCAATCCATGGACCGGTTTTCCCGGTAATCCGTATTTGAA (site GGCAATCCTTT)”, with 0.0354; and “TGCAATCCATGGACCGGTTTTCCCGGTAATCCGTATTTGAA (site TGCAATCCTTT)”, with 1.16.
Next, “TGCACATCATGGACCGGTTTTCCCGGTAATCCGTATTTGCC (site TGCACATCTGG)”: 0.35; “TGCACCGCATGGACCGGTTTTCCCGGTAATCCGTATTTGCG (site TACACCGCTCG)”: 0.0133; “TGCACCGCATGGACCGGTTTTCCCGGTAATCCGTATTTGCG (site TCCACCGCTCG)”: 0.0173.
Then “TGCACCGCATGGACCGGTTTTCCCGGTAATCCGTATTTGCG (site TGCACCGCTCG)”, with 0.0216; and “TGCACCGCATGGACCGGTTTTCCCGGTAATCCGTATTTGCG (site TTCACCGCTCG)”, with 0.00682.
Consider “TGCAGCACATGGACCGGTTTTCCCGGTAATCCGTATTTGCG (site TGCAGCACTCG)”, for which the “recombinant UMI read abundance (log10)” value was found to be 0.686.
As to “TGCAGTGCATGGACCGGTTTTCCCGGTAATCCGTATTTGTA (site TGCAGTGCTTA)”, the “recombinant UMI read abundance (log10)” value came to 0.853.
On to “TGCATCCCATGGACCGGTTTTCCCGGTAATCCGTATTTGAA (site TGCATCCCTTT)”, for which the “recombinant UMI read abundance (log10)” value was determined as 0.335.
“TGCATTCCATGGACCGGTTTTCCCGGTAATCCGTATTTGTT (site TGCATTCCTAA)”: the “recombinant UMI read abundance (log10)” value is 0.
For “TGCCAGGCATGGACCGGTTTTCCCGGTAATCCGTATTTGTC (site TGCCAGGCTGA)”, the “recombinant UMI read abundance (log10)” value was determined as 0.
Next, “TGCCATTCATGGACCGGTTTTCCCGGTAATCCGTATTTGAT (site TGCCATTCTAT)”: 0; “TGCCCGGCATGGACCGGTTTTCCCGGTAATCCGTATTTGGC (site TGACCGGCTGC)”: 0.0166; “TGCCCGGCATGGACCGGTTTTCCCGGTAATCCGTATTTGGC (site TGCCCGGCTGC)”: 0.
For “TGCCCGGCATGGACCGGTTTTCCCGGTAATCCGTATTTGGC (site TGGCCGGCTGC)”, the “recombinant UMI read abundance (log10)” value turned out to be 0.
Then “TGCCCGGCATGGACCGGTTTTCCCGGTAATCCGTATTTGGC (site TGTCCGGCTGC)”, with 0; and “TGCCGATCATGGACCGGTTTTCCCGGTAATCCGTATTTGCG (site TGCCGATCTCG)”, with 0.225.
Turning to “TGCCGTACATGGACCGGTTTTCCCGGTAATCCGTATTTGCT (site AGCCGTACTAG)”, the “recombinant UMI read abundance (log10)” value was found to be 0.792.
Then “TGCCGTACATGGACCGGTTTTCCCGGTAATCCGTATTTGCT (site CGCCGTACTAG)”, with 0.514; and “TGCCGTACATGGACCGGTTTTCCCGGTAATCCGTATTTGCT (site GGCCGTACTAG)”, with 0.
Turning to “TGCCGTACATGGACCGGTTTTCCCGGTAATCCGTATTTGCT (site TGCCGTACTAG)”, the “recombinant UMI read abundance (log10)” value came out at 1.25.
Next, “TGCGACACATGGACCGGTTTTCCCGGTAATCCGTATTTGGT (site TGCGACACTAC)”: 0.00309.
“TGCGAGGCATGGACCGGTTTTCCCGGTAATCCGTATTTGGA (site TGCGAGGCTTC)”: the “recombinant UMI read abundance (log10)” value is 0.00911.
With “TGCGTTACATGGACCGGTTTTCCCGGTAATCCGTATTTGTT (site TGCGTTACTAA)”, the “recombinant UMI read abundance (log10)” value came out at 0.237.
“TGCTAGGCATGGACCGGTTTTCCCGGTAATCCGTATTTGAT (site TGCTAGGCTAA)”: the “recombinant UMI read abundance (log10)” value came to 0.0172.
Then “TGCTAGGCATGGACCGGTTTTCCCGGTAATCCGTATTTGAT (site TGCTAGGCTAC)”, with 0.0154; and “TGCTAGGCATGGACCGGTTTTCCCGGTAATCCGTATTTGAT (site TGCTAGGCTAG)”, with 0.
As to “TGCTAGGCATGGACCGGTTTTCCCGGTAATCCGTATTTGAT (site TGCTAGGCTAT)”, the “recombinant UMI read abundance (log10)” value stood at 0.326.
Next, “TGCTATGCATGGACCGGTTTTCCCGGTAATCCGTATTTGGT (site TGCTAAGCTAC)”: 0.0239; “TGCTATGCATGGACCGGTTTTCCCGGTAATCCGTATTTGGT (site TGCTACGCTAC)”: 0.0173.
Next, “TGCTATGCATGGACCGGTTTTCCCGGTAATCCGTATTTGGT (site TGCTAGGCTAC)”: 0.00428.
Next, “TGCTATGCATGGACCGGTTTTCCCGGTAATCCGTATTTGGT (site TGCTATGCTAC)”: 0.262.
For “TGCTATTCATGGACCGGTTTTCCCGGTAATCCGTATTTGTA (site TGCTATTCTTA)”, the “recombinant UMI read abundance (log10)” value amounted to 1.33.
Then “TGCTCACCATGGACCGGTTTTCCCGGTAATCCGTATTTGTA (site TGCTCACCTTA)”, with 0.0115.
Next, “TGCTGGGCATGGACCGGTTTTCCCGGTAATCCGTATTTGCC (site TGCTGGGCTGG)”: 0.00658; “TGCTTATCATGGACCGGTTTTCCCGGTAATCCGTATTTGTG (site TGCTTATCTCA)”: 1; “TGCTTGCCATGGACCGGTTTTCCCGGTAATCCGTATTTGAA (site TGCTTGCCTTT)”: 0.0149.
Take “TGGAAGACATGGACCGGTTTTCCCGGTAATCCGTATTTGCA (site AGGAAGACTTG)”: the “recombinant UMI read abundance (log10)” value came out at 1.64.
Then “TGGAAGACATGGACCGGTTTTCCCGGTAATCCGTATTTGCA (site CGGAAGACTTG)”, with 1.44; and “TGGAAGACATGGACCGGTTTTCCCGGTAATCCGTATTTGCA (site GGGAAGACTTG)”, with 0; and “TGGAAGACATGGACCGGTTTTCCCGGTAATCCGTATTTGCA (site TGGAAGACTTG)”, with 2.67.
Then “TGGAAGTCATGGACCGGTTTTCCCGGTAATCCGTATTTGCA (site AGGAAGACTTG)”, with 0.00562.
Next, “TGGAAGTCATGGACCGGTTTTCCCGGTAATCCGTATTTGCA (site TGGAAGTCTTG)”: 3.25; “TGGAATCCATGGACCGGTTTTCCCGGTAATCCGTATTTGTT (site AGGAATCCTAA)”: 0.
Consider “TGGAATCCATGGACCGGTTTTCCCGGTAATCCGTATTTGTT (site CGGAATCCTAA)”, for which the “recombinant UMI read abundance (log10)” value was determined as 0.
